PMC8800111 (The Journal of Biological Chemistry, 2021)

Tests used:
Format in all cases: cell-based
[1] = molecular target: proteins of U3A human fibrosarcoma cells (4462 proteins detected) (Homo sapiens, UniProt O43683); conditions: protein BUB1; U3A cells
[2] = molecular target: proteins of U3A human fibrosarcoma cells (4462 proteins detected) (Homo sapiens, UniProt O75400); conditions: protein PRPF40A; U3A cells
[3] = molecular target: proteins of U3A human fibrosarcoma cells (4462 proteins detected) (Homo sapiens, UniProt P00519); conditions: protein ABL1; U3A cells
[4] = molecular target: proteins of U3A human fibrosarcoma cells (4462 proteins detected) (Homo sapiens, UniProt P04183); conditions: protein TK1; U3A cells
Sequence of proteins of U3A human fibrosarcoma cells (4462 proteins detected) (Homo sapiens, UniProt P04183) (P04183 whole entry): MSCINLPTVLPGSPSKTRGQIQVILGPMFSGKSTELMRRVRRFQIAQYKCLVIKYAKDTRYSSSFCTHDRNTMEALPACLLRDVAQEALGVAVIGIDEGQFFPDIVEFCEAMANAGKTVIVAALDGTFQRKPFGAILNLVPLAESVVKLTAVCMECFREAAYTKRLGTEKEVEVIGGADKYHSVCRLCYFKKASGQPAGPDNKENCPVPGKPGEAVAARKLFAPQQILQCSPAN

[5] = molecular target: proteins of U3A human fibrosarcoma cells (4462 proteins detected) (Homo sapiens, UniProt P15586); conditions: protein GNS, U3A cells
[6] = molecular target: proteins of U3A human fibrosarcoma cells (4462 proteins detected) (Homo sapiens, UniProt P28290); conditions: protein SSFA2; U3A, 10 μM, 2 h
Sequence of proteins of U3A human fibrosarcoma cells (4462 proteins detected) (Homo sapiens, UniProt P28290) (P28290 whole entry): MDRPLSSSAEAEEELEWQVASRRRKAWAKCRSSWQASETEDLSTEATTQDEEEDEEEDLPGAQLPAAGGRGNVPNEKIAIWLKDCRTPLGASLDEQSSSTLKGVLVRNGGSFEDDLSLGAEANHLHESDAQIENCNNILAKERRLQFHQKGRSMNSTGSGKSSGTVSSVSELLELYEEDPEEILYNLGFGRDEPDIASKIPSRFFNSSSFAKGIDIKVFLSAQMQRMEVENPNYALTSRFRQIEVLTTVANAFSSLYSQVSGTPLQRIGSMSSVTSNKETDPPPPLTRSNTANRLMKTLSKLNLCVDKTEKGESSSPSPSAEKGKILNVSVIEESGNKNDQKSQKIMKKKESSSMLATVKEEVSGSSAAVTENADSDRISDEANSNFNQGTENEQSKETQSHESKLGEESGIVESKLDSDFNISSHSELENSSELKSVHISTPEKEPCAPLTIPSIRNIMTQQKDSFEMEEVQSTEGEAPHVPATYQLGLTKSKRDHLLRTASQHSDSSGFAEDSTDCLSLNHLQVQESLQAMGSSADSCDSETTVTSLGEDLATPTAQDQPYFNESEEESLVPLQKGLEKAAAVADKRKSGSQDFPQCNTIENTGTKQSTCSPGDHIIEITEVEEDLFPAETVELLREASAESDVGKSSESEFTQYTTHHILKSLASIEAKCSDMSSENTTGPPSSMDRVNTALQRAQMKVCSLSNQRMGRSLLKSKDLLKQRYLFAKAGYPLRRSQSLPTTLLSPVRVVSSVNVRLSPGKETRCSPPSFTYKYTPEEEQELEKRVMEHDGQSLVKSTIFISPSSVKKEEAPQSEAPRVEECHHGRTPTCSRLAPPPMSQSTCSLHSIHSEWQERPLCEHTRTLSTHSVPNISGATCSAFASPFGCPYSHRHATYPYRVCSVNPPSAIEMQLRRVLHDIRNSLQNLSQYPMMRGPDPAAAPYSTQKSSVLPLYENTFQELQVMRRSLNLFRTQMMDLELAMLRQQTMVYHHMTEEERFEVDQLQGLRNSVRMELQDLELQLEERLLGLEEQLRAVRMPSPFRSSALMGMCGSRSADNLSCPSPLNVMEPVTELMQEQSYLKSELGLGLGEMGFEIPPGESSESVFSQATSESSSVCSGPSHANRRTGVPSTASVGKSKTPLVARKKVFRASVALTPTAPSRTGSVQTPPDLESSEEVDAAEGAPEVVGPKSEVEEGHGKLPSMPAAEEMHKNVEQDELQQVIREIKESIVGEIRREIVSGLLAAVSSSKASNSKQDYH

[7] = molecular target: proteins of U3A human fibrosarcoma cells (4462 proteins detected) (Homo sapiens, UniProt P35244); conditions: protein RPA3; soluble abundance after heat, U3A cells
[8] = molecular target: proteins of U3A human fibrosarcoma cells (4462 proteins detected) (Homo sapiens, UniProt P61081); conditions: protein UBE2M; U3A cells
[9] = molecular target: proteins of U3A human fibrosarcoma cells (4462 proteins detected) (Homo sapiens, UniProt P62805); conditions: protein HIST1H4A; U3A, 10 μM, 2 h
[10] = molecular target: proteins of U3A human fibrosarcoma cells (4462 proteins detected) (Homo sapiens, UniProt P63146); conditions: protein UBE2B, U3A cells
Sequence of proteins of U3A human fibrosarcoma cells (4462 proteins detected) (Homo sapiens, UniProt P63146) (P63146 whole entry): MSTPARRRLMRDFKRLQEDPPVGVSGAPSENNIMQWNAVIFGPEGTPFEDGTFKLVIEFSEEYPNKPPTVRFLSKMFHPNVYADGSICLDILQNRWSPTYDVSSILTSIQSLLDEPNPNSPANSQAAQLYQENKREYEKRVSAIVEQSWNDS

[11] = molecular target: proteins of U3A human fibrosarcoma cells (4462 proteins detected) (Homo sapiens, UniProt P63173); conditions: protein RPL38; U3A cells
[12] = molecular target: proteins of U3A human fibrosarcoma cells (4462 proteins detected) (Homo sapiens, UniProt Q12874); conditions: protein SF3A3; U3A cells
[13] = molecular target: proteins of U3A human fibrosarcoma cells (4462 proteins detected) (Homo sapiens, UniProt Q5PSV4); conditions: protein BRMS1L, U3A cells
Sequence of proteins of U3A human fibrosarcoma cells (4462 proteins detected) (Homo sapiens, UniProt Q5PSV4) (Q5PSV4 whole entry): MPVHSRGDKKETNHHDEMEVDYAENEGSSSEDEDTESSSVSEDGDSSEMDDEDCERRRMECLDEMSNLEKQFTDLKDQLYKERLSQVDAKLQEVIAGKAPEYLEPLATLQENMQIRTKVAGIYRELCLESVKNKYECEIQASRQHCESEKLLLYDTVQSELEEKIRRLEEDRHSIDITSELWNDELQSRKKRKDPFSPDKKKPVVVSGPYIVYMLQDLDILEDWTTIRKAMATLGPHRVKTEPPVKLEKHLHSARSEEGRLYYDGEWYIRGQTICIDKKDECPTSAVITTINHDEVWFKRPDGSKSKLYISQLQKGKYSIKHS

[14] = molecular target: proteins of U3A human fibrosarcoma cells (4462 proteins detected) (Homo sapiens, UniProt Q7Z3E5); conditions: protein ARMC9; U3A, 10 μM, 2 h
[15] = molecular target: proteins of U3A human fibrosarcoma cells (4462 proteins detected) (Homo sapiens, UniProt Q86TU7); conditions: protein SETD3; U3A cells
Sequence of proteins of U3A human fibrosarcoma cells (4462 proteins detected) (Homo sapiens, UniProt Q86TU7) (Q86TU7 whole entry): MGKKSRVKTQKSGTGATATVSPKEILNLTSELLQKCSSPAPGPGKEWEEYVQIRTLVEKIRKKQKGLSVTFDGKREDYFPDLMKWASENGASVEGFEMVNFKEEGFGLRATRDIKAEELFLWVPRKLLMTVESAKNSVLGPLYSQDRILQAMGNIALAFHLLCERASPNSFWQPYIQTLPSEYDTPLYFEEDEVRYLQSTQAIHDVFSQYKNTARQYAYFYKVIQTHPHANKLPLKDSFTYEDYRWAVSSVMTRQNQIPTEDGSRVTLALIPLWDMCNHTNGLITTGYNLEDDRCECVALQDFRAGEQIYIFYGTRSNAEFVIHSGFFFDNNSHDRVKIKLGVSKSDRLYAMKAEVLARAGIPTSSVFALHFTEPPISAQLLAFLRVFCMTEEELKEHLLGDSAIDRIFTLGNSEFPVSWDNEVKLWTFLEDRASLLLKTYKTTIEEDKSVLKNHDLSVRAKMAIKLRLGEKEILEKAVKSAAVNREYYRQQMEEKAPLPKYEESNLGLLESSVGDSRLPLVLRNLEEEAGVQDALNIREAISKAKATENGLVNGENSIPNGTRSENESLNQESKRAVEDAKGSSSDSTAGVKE

[16] = molecular target: proteins of U3A human fibrosarcoma cells (4462 proteins detected) (Homo sapiens, UniProt Q8NB16); conditions: protein MLKL; U3A, 10 μM, 2 h
[17] = molecular target: proteins of U3A human fibrosarcoma cells (4462 proteins detected) (Homo sapiens, UniProt Q8NBJ4); conditions: protein GOLM1; U3A, 10 μM, 2 h
[18] = molecular target: proteins of U3A human fibrosarcoma cells (4462 proteins detected) (Homo sapiens, UniProt Q92888); conditions: protein ARHGEF1; U3A cells
[19] = molecular target: proteins of U3A human fibrosarcoma cells (4462 proteins detected) (Homo sapiens, UniProt Q969G3); conditions: protein SMARCE1, U3A cells
[20] = molecular target: proteins of U3A human fibrosarcoma cells (4462 proteins detected) (Homo sapiens, UniProt Q9BUL8); conditions: protein PDCD10; soluble abundance after heat, U3A cells
[21] = molecular target: proteins of U3A human fibrosarcoma cells (4462 proteins detected) (Homo sapiens, UniProt Q9BW91); conditions: protein NUDT9, U3A cells
Sequence of proteins of U3A human fibrosarcoma cells (4462 proteins detected) (Homo sapiens, UniProt Q9BW91) (Q9BW91 47-350): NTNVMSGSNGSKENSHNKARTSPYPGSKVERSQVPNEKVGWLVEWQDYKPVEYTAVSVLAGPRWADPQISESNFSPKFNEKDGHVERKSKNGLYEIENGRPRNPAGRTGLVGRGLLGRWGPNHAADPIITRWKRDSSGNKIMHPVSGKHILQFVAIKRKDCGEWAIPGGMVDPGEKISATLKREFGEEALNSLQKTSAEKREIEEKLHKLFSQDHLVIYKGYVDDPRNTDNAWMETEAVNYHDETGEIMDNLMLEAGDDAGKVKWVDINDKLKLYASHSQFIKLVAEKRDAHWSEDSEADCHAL

[22] = molecular target: proteins of U3A human fibrosarcoma cells (4462 proteins detected) (Homo sapiens, UniProt Q9BXS5); conditions: protein AP1M1; U3A cells
[23] = molecular target: proteins of U3A human fibrosarcoma cells (4462 proteins detected) (Homo sapiens, UniProt Q9BYG3); conditions: protein NIFK; soluble abundance after heat, U3A cells
[24] = molecular target: proteins of U3A human fibrosarcoma cells (4462 proteins detected) (Homo sapiens, UniProt Q9H4E7); conditions: protein DEF6; U3A cells
Sequence of proteins of U3A human fibrosarcoma cells (4462 proteins detected) (Homo sapiens, UniProt Q9H4E7) (Q9H4E7 whole entry): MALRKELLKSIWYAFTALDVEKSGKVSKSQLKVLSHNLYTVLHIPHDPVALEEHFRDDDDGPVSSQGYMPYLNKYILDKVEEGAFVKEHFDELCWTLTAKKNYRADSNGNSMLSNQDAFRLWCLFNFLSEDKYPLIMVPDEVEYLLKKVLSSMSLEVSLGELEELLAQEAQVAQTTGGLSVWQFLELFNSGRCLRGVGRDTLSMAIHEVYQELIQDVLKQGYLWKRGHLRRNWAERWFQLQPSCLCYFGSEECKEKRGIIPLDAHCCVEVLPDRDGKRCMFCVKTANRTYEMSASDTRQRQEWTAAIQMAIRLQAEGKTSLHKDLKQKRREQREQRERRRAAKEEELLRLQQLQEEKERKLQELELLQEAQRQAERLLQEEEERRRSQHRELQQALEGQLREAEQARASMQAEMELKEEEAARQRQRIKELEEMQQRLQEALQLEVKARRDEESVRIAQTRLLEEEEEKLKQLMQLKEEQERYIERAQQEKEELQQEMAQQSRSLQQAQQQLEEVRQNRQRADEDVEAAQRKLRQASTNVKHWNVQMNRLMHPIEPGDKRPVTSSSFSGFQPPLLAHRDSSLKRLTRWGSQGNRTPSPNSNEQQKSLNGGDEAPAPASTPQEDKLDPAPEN

[25] = molecular target: proteins of U3A human fibrosarcoma cells (4462 proteins detected) (Homo sapiens, UniProt Q9H7X7); conditions: protein IFT22; U3A, 10 μM, 2 h
[26] = molecular target: proteins of U3A human fibrosarcoma cells (4462 proteins detected) (Homo sapiens, UniProt Q9NPD8); conditions: protein UBE2T; soluble abundance after heat, U3A cells
[27] = molecular target: proteins of U3A human fibrosarcoma cells (4462 proteins detected) (Homo sapiens, UniProt Q9NVR0); conditions: protein KLHL11; U3A cells
[28] = molecular target: proteins of U3A human fibrosarcoma cells (4462 proteins detected) (Homo sapiens, UniProt Q9NX08); conditions: protein COMMD8; soluble abundance after heat, U3A cells
Sequence of proteins of U3A human fibrosarcoma cells (4462 proteins detected) (Homo sapiens, UniProt Q9NX08) (Q9NX08 whole entry): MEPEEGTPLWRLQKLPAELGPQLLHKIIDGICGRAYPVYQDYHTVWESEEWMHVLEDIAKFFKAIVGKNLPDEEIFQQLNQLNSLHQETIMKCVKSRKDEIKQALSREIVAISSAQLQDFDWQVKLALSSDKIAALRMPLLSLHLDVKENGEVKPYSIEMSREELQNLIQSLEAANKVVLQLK

[29] = molecular target: proteins of U3A human fibrosarcoma cells (4462 proteins detected) (Homo sapiens, UniProt Q9Y2Q3); conditions: protein GSTK1; U3A cells
Sequence of proteins of U3A human fibrosarcoma cells (4462 proteins detected) (Homo sapiens, UniProt Q9Y2Q3) (Q9Y2Q3 whole entry): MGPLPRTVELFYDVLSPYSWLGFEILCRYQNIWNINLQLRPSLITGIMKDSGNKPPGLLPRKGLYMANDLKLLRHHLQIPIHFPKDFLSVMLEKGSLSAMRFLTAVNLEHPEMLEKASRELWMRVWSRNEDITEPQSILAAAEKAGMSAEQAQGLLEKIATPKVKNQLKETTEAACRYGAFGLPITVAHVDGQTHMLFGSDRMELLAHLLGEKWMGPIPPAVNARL

[30] = molecular target: proteins of U3A human fibrosarcoma cells (4462 proteins detected) (Homo sapiens, UniProt Q9Y6A4); conditions: protein CFAP20; soluble abundance after heat, U3A cells

Sequence of proteins of U3A human fibrosarcoma cells (4462 proteins detected) (Homo sapiens, UniProt O43683) (O43683 whole entry): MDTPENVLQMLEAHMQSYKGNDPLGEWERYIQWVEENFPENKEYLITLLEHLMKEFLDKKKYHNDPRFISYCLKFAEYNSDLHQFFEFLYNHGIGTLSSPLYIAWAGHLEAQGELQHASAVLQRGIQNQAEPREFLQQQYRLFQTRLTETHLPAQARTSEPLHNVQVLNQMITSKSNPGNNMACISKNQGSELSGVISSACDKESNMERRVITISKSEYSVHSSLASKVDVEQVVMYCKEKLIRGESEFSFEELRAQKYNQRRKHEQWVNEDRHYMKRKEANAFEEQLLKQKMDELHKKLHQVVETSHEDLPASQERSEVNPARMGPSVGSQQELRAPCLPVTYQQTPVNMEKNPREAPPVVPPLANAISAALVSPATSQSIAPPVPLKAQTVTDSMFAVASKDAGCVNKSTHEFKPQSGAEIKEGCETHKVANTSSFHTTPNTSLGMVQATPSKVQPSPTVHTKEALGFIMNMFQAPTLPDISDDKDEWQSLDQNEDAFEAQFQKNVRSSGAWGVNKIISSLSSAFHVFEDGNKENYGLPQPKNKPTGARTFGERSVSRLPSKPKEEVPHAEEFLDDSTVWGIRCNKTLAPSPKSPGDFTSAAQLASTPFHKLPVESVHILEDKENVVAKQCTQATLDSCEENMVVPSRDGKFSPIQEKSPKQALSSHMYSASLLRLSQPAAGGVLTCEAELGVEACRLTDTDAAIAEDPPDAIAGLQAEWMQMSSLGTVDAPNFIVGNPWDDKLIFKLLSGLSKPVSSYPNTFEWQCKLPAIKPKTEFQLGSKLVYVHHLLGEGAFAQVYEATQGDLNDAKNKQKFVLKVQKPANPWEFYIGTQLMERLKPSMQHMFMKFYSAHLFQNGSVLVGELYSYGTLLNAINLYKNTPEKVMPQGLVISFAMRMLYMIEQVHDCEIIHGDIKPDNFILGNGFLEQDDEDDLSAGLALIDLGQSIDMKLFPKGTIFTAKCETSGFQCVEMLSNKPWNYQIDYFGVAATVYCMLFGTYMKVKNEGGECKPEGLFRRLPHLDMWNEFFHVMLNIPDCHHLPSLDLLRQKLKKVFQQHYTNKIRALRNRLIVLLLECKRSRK

SMILES: CCc1nc(N)nc(N)c1-c1ccc(Cl)cc1 [pyrimethamine]
- Log2 (PYR/DMSO) [1]: 0.16
- Log2 (PYR/DMSO) [2]: 0.16
- Log2 (PYR/DMSO) [3]: 0.17
- Log2 (PYR/DMSO) [4]: 0.19
- Log2 (PYR/DMSO) [5]: -0.04
- Log2 (PYR/DMSO), SSFA2 [6]: -0.15
- Log2 (PYR/DMSO) [7]: 0.13
- Log2 (PYR/DMSO) [8]: 0.19
- Log2 (PYR/DMSO), HIST1H4A [9]: 0.28
- Log2 (PYR/DMSO) [10]: -0.04
- Log2 (PYR/DMSO) [11]: 0.18
- Log2 (PYR/DMSO) [12]: 0.18
- Log2 (PYR/DMSO) [13]: -0.04
- Log2 (PYR/DMSO), ARMC9 [14]: -0.15
- Log2 (PYR/DMSO) [15]: 0.20
- Log2 (PYR/DMSO), MLKL [16]: 0.27
- Log2 (PYR/DMSO), GOLM1 [17]: -0.22
- Log2 (PYR/DMSO) [18]: 0.18
- Log2 (PYR/DMSO) [19]: -0.05
- Log2 (PYR/DMSO) [20]: 0.15
- Log2 (PYR/DMSO) [21]: -0.04
- Log2 (PYR/DMSO) [22]: 0.17
- Log2 (PYR/DMSO) [23]: 0.14
- Log2 (PYR/DMSO) [24]: 0.22
- Log2 (PYR/DMSO), IFT22 [25]: -0.16
- Log2 (PYR/DMSO) [26]: 0.13
- Log2 (PYR/DMSO) [27]: 0.18
- Log2 (PYR/DMSO) [28]: 0.14
- Log2 (PYR/DMSO) [29]: 0.18
- Log2 (PYR/DMSO) [30]: 0.14
